EP2608671B1, “COMPOUNDS FOR TREATMENT OF CANCER” (Gtx, Inc., priority 2010, dated 2012)
Where a name gives a salt, the structure may show the parent alone. Read-outs that look alike come from different tables or passages of the source.

Experiments:
[1] = test system: melanoma cell lines (A375, WM-164, B16-F1) and prostate cancer cell lines (LNCaP, DU 145, PC-3, PPC-1); experiment: SRB cytotoxicity, melanoma and prostate cell panel (averages); assay type: cell-based; settings: for antiproliferative activity: summary of Table 3
Source text: (§1) The only compounds which belong to the invention are the ones falling under the scope of formula (XI).

PC-3 = experiment: cells; settings: Homo sapiens
Source text: as §1
Cells were stained with SRB solution.
Cells. […] Cells between the third and fifth passages were used for experiments.
Cell growth inhibition studies. […] Cells were stained with sulphorhodamine B (SRB) solution.

PPC-1 = experiment: cells; settings: Homo sapiens
DU 145 = experiment: cells; settings: Homo sapiens
B16-F1 = experiment: SRB cell growth inhibition (cytotoxicity) assay; assay type: cell-based, mouse
Source text: as §1

A375 = experiment: SRB cell growth inhibition (cytotoxicity) assay; assay type: cell-based, human
LNCaP = experiment: cells; settings: Homo sapiens
[2] = rat; for CL (mL/min/kg), systemic clearance / Vss (L/kg), volume of distribution: IV, […] (1h, 2r), 5 mg/kg (5Ha, 5Hc); for F (%), percent oral bioavailability: Table 4, 10 mg/kg
WM-164 = experiment: SRB cell growth inhibition (cytotoxicity) assay; assay type: cell-based, human; settings: Homo sapiens
[3] = PC-3, 96 h, read-out: IC50 ± SEM (nM), PC-3
[4] = PPC-1, 96 h, read-out: IC50 ± SEM (nM), PPC-1
[5] = DU-145, 96 h, read-out: IC50 ± SEM (nM), DU 145
[6] = Mus musculus, B16-F1; read-out: IC50 ± SEM (nM), B16-F1
[7] = Homo sapiens, A-375, 96 h; read-out: IC50 ± SEM (nM), A375
[8] = Prostate cell, Table 2, read-out: IC50 range over tested melanoma and prostate cell lines
[9] = 96 h, read-out: IC50 ± SEM (nM), LNCaP
[10] = DU-145, 96 h, read-out: IC50 ± SEM (nM) Du 145
[11] = Mus musculus; B16-F1 melanoma cells, 48 h, SRB; read-out: IC50 ± SEM (nM) B16-F1
[12] = WM164 melanoma cells, 48 h, SRB, read-out: IC50 ± SEM (nM) WM164
[13] = Homo sapiens, A-375; A375 melanoma cells, 48 h, SRB; read-out: IC50 ± SEM (nM) A375
[14] = ABI compounds, Tables 11-13, read-out: IC50 (average over cell lines)
[15] = Prostate cell, read-out: IC50 (average over cell lines)
[16] = PC-3, read-out: IC50 (nM), PC-3
[17] = PPC-1, read-out: IC50 (nM), PPC-1
[18] = DU-145, read-out: IC50 (nM), DU 145
[19] = Mus musculus, B16-F1; Table 6A; read-out: IC50 (nM), B16-F1
[20] = WM164, Table 6A, read-out: IC50 (nM), WM164
[21] = Homo sapiens, A-375; Table 6A; read-out: IC50 (nM), A375

COc1cc(C(=NN)c2csc(-c3ccccc3)n2)cc(OC)c1OC (mixture of isomers) [2d]
IC50 ([1]; Table 2, read-out: IC50 range over tested melanoma and prostate cell lines): ~1000 nM

COc1cc(/C(=N/O)c2csc(-c3ccccc3)n2)cc(OC)c1OC [2e-cis, (Z)-(2-Phenylthiazol-4-yl)(3,4,5-trimethoxyphenyl)methanone oxime]
IC50 (PC-3; [3]): 120 nM
IC50 (PPC-1; [4]): 160 nM
IC50 (DU 145; [5]): 102 nM
IC50 (B16-F1; [6]): 300 ± 100 nM
IC50 (A375; [7]): 200 ± 100 nM
IC50 [1, 8]: 100 to 300 nM
IC50 (LNCaP; [9]): 189 nM

COc1cc(/C(=N\O)c2csc(-c3ccccc3)n2)cc(OC)c1OC [2e-trans, (E)-(2-Phenylthiazol-4-yl)(3,4,5-trimethoxyphenyl)methanone oxime]
IC50 (PC-3; [3]): > 10000 nM
IC50 (PPC-1; [4]): > 10000 nM
IC50 (DU 145; [5]): > 10000 nM
IC50 (B16-F1; [6]): 11400 ± 2100 nM
IC50 (A375; [7]): 7800 ± 1200 nM
IC50 [1, 8]: > 10000 nM
IC50 (LNCaP; [9]): > 10000 nM

CNCc1ccc(-c2nc(C(=O)c3cc(OC)c(OC)c(OC)c3)cs2)cc1.Cl [2s, (2-(4-((Methylamino)methyl)phenyl)thiazol-4-yl)(3,4,5-trimethoxyphenyl)methanone hydrochloride]
IC50 (PC-3; [3]): > 10000 nM
IC50 (PPC-1; [4]): ~1000 nM
IC50 (DU 145; [5]): ~10000 nM
IC50 (B16-F1; Mus musculus, B16-F1, read-out: IC50 ± SEM (nM), B16-F1): > 10000 nM
IC50 (A375; Homo sapiens, A-375, 96 h, read-out: IC50 ± SEM (nM), A375): > 10000 nM
antiproliferative activity [1]: abrogated activity
IC50 (LNCaP; [9]): 114 ± 80 nM

COc1cc(C(=O)c2csc(-c3ccc(CN(C)C)cc3)n2)cc(OC)c1OC.Cl [2u, (2-(4-((Dimethylamino)methyl)phenyl)thiazol-4-yl)(3,4,5-trimethoxyphenyl)methanone hydrochloride]
IC50 (PC-3; [3]): > 10000 nM
IC50 (PPC-1; [4]): > 10000 nM
IC50 (DU 145; [5]): > 10000 nM
IC50 (B16-F1; [6]): > 10000 nM
IC50 (A375; [7]): > 10000 nM
antiproliferative activity [1]: abrogated activity
IC50 (LNCaP; [9]): 1020 ± 200 nM

COc1cc(C(=O)c2csc(Nc3ccccc3)n2)cc(OC)c1OC.Cl [5Ha, (2-(Phenylamino)thiazol-4-yl)(3,4,5-trimethoxyphenyl)methanone hydrochloride salt]
CL (mL/min/kg), systemic clearance [2]: 17 ± 3 mL/min/kg
Vss (L/kg), volume of distribution [2]: 1.4 ± 0.2 L/kg
F (%), percent oral bioavailability [2]: 11%

COc1cc(C(=O)c2csc(Nc3ccc(F)cc3)n2)cc(OC)c1OC.Cl [5Hc, (2-(p-Fluorophenylamino)thiazol-4-yl)(3,4,5-trimethoxyphenyl)methanone hydrochloride salt]
CL (mL/min/kg), systemic clearance [2]: 13 ± 2 mL/min/kg
Vss (L/kg), volume of distribution [2]: 1.4 ± 0.2 L/kg
increased exposure (AUC) by the oral route as compared to 1h ([2]; in vivo, po): more than 4.3 fold
F (%), percent oral bioavailability [2]: 21%

O=C(c1ccc(F)cc1)c1cn(S(=O)(=O)c2ccccc2)c(-c2ccc(OCc3ccccc3)cc2)n1 [11jb, (2-(4-(benzyloxy)phenyl)-1-(phenylsulfonyl)-1H-imidazol-4-yl)(4-fluorophenyl)methanone]
IC50 (PC-3; [3]): 75 ± 0.5 nM
IC50 (PPC-1; [4]): 38 ± 0.2 nM
IC50 (DU 145; [10]): 58 ± 1 nM
IC50 (B16-F1; [11]): 110 ± 15 nM
IC50 (WM-164; [12]): 48 ± 5 nM
IC50 (A375; [13]): 64 ± 7 nM
IC50 ([1]; Prostate cell, ABI compounds, Tables 11-13, read-out: IC50 (average over cell lines)): 61 nM
IC50 (LNCaP; [9]): 35 ± 1 nM

COc1cc(C(=O)c2c[nH]c(-c3ccccc3)n2)cc(OC)c1OC [12aa, (2-phenyl-1H-imidazol-4-yl)(3,4,5-trimethoxyphenyl)methanone]
IC50 (PC-3; PC-3, 96 h, read-out: IC50 (nM), PC-3): 288 nM
IC50 (PPC-1; PPC-1, 96 h, read-out: IC50 (nM), PPC-1): 133 nM
IC50 (DU 145; DU-145, 96 h, read-out: IC50 (nM), Du 145): 196 nM
IC50 (B16-F1; Mus musculus, B16-F1, 48 h, read-out: IC50 (nM), B16-F1): 120 nM
IC50 (WM-164; WM164, 48 h, read-out: IC50 (nM), WM164): 10 nM
IC50 (A375; Homo sapiens, A-375, 48 h, read-out: IC50 (nM), A375): 160 nM
IC50 [1, 14]: 160 nM
IC50 (LNCaP; 96 h, read-out: IC50 (nM), LNCaP): 152 nM

Cc1ccc(-c2nc(C(=O)c3ccc(F)cc3)c[nH]2)cc1 [12db-HCl, (4-fluorophenyl)(2-(p-tolyl)-1H-imidazol-4-yl)methanone HCl salt]
IC50 (A375; Homo sapiens, A-375, 48 h, read-out: IC50 ± SEM (nM) A375, A375 melanoma cells, 48 h, SRB): 108 ± 11 nM
IC50 ([1]; ABI compounds, Tables 11-13, HCl salt, read-out: IC50 (average over cell lines)): 172 nM

COc1cc(C(=O)c2c[nH]c(-c3cc(OC)c(OC)c(OC)c3)n2)cc(OC)c1OC [12ea, (3,4,5-trimethoxyphenyl)(2-(3,4,5-trimethoxyphenyl)-1H-imidazol-4-yl)methanone]
IC50 (PC-3; [3]): > 10000 nM
IC50 (PPC-1; [4]): > 10000 nM
IC50 (DU 145; [10]): > 10000 nM
IC50 [1, 15]: > 10000 nM
IC50 (LNCaP; [9]): > 10000 nM

COc1cc(-c2nc(C(=O)c3ccc(F)cc3)c[nH]2)cc(OC)c1OC [12eb, (4-fluorophenyl)(2-(3,4,5-trimethoxyphenyl)-1H-imidazol-4-yl)methanone]
IC50 (PC-3; [3]): > 10000 nM
IC50 (PPC-1; [4]): > 10000 nM
IC50 (DU 145; [10]): > 10000 nM
IC50 [1, 15]: > 10000 nM
IC50 (LNCaP; [9]): > 10000 nM

COc1ccc(-c2nc(C(=O)c3cc(OC)c(OC)c(OC)c3)c[nH]2)cc1OC [12ha, (2-(3,4-dimethoxyphenyl)-1H-imidazol-4-yl)(3,4,5-trimethoxyphenyl)methanone]
IC50 (B16-F1; Mus musculus, B16-F1, 48 h, read-out: IC50 ± SEM (nM) B16-F1): 1400 ± 200 nM
IC50 (WM-164; WM164, 48 h, read-out: IC50 ± SEM (nM) WM164): 191 ± 18 nM
IC50 [1, 14]: 330 nM

O=C(c1ccc(F)cc1)c1c[nH]c(-c2ccccc2C(F)(F)F)n1 [12ib, (4-fluorophenyl)(2-(2-(trifluoromethyl)phenyl)-1 H-imidazol-4-yl)methanone]
IC50 (PC-3; [3]): > 10000 nM
IC50 (PPC-1; [4]): > 10000 nM
IC50 (DU 145; [10]): > 10000 nM
IC50 (B16-F1; [11]): > 10000 nM
IC50 (WM-164; [12]): > 10000 nM
IC50 (A375; [13]): > 10000 nM
IC50 [1, 15]: > 10000 nM
IC50 (LNCaP; [9]): > 10000 nM

O=C(c1cc(O)c(O)c(O)c1)c1c[nH]c(-c2ccc(Cl)cc2)n1 [13fa, (2-(4-chlorophenyl)-1H-imidazol-4-yl)(3,4,5-trihydroxyphenyl)methanone]
IC50 (PC-3; [3]): 10000 nM
IC50 (PPC-1; [4]): > 10000 nM
IC50 (DU 145; [10]): 10000 nM
IC50 [1, 15]: 3890 nM
IC50 (LNCaP; [9]): 10000 nM

COc1cc(C(=O)c2cn(S(=O)(=O)c3ccccc3)c(-c3ccc4c(c3)cc(C(=O)c3cc(OC)c(OC)c(OC)c3)n4S(=O)(=O)c3ccccc3)n2)cc(OC)c1OC [16xaa, (1-(Phenylsulfonyl)-2-(1-(phenylsulfonyl)-2-(3,4,5-trimethoxybenzoyl)-1H-indol-5-yl)-1H-imidazol-4-yl)(3,4,5-trimethoxyphenyl)methanone]
IC50 (PC-3; [16]): > 10000 nM
IC50 (PPC-1; [17]): > 10000 nM
IC50 (DU 145; [18]): > 10000 nM
IC50 (B16-F1; Mus musculus, B16-F1, read-out: IC50 (nM), B16-F1): > 10000 nM
IC50 (WM-164; WM164, read-out: IC50 (nM), WM164): > 10000 nM
IC50 (A375; Homo sapiens, A-375, read-out: IC50 (nM), A375): > 10000 nM
IC50 (LNCaP; read-out: IC50 (nM), LNCaP): > 10000 nM

O=C(c1csc(-c2cc3ccccc3[nH]2)n1)c1cc2ccccc2[nH]1 [compound 8, (2-(1H-Indol-2-yl)thiazol-4-yl)(1H-indol-2-yl)methanone]
IC50 (PC-3; [16]): 704 nM
IC50 (PPC-1; [17]): 230 nM
IC50 (DU 145; [18]): 580 nM
IC50 (B16-F1; [19]): 570 nM
IC50 (WM-164; [20]): 404 nM
IC50 (A375; [21]): 318 nM
IC50 (LNCaP; read-out: IC50 (nM), LNCaP): 346 nM

O=C(c1ccc2[nH]ccc2c1)c1csc(-c2cc3ccccc3[nH]2)n1 [compound 21, (2-(1H-indol-2-yl)thiazol-4-yl)(1H-indol-5-yl)methanone]
IC50 (PC-3; [16]): 403 nM
IC50 (PPC-1; [17]): 216 nM
IC50 (DU 145; [18]): 435 nM
IC50 (B16-F1; [19]): 924 nM
IC50 (WM-164; [20]): 408 nM
IC50 (A375; [21]): 383 nM
IC50 ([1]; Prostate cell, summary of Tables 2, 3, 21, read-out: IC50 range over tested melanoma and prostate cell lines): 76 to 116 nM
IC50 (LNCaP; read-out: IC50 (nM), LNCaP): 314 nM

COc1cc(C(=NC#N)c2csc(-c3ccccc3)n2)cc(OC)c1O [compound 32, N-((4-hydroxy-3,5-dimethoxyphenyl)(2-phenylthiazol-4-yl)methylene)cyanamide]
IC50 (PC-3; [16]): 2290 nM
IC50 (PPC-1; [17]): 1170 nM
IC50 (DU 145; [18]): 4600 nM
IC50 (B16-F1; [19]): > 10000 nM
IC50 (WM-164; [20]): 2600 nM
IC50 (A375; [21]): 2700 nM
IC50 (LNCaP; read-out: IC50 (nM), LNCaP): 1660 nM
